Measured values from publication PMC12541620 (Acta Pharmaceutica Sinica. B, 2025).
Read-outs that look alike come from different tables or passages of the source.

Key:
[1] = target: T1, hCES2A (Homo sapiens, UniProt O00748); assay: hCES2A inhibition assay; type: biochemical; settings: for Ratio: IC50 3 min / IC50 33 min
T1 sequence (O00748 27-559): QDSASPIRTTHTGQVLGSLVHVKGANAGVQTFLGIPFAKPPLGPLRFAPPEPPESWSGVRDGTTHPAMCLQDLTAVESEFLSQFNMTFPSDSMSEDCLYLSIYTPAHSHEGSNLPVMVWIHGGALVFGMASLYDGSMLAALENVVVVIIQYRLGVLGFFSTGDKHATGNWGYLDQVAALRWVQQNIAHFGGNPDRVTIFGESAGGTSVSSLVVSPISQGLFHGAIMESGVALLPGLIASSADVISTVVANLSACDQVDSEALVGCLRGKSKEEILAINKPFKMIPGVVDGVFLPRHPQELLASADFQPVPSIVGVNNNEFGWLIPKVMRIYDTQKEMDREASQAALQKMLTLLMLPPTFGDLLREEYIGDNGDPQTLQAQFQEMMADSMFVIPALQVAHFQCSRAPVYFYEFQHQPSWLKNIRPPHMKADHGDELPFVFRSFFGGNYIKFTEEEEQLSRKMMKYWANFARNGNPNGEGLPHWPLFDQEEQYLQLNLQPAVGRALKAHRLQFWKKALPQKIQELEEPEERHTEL

[2] = target: T1, hCES2A; assay: dialysis assay; type: biochemical; settings: 10 μmol/L, 33 min preincubation, dialysis 2 and 4 h
[3] = system: irinotecan-triggered gut toxicity (ITGT) in tumor-bearing mice; assay: irinotecan-triggered gut toxicity in tumor-bearing mice; type: in vivo, C57BL/6J mice; settings: C3 25 and 50 mg/kg; LPA 10 mg/kg
[4] = target: hAChE (Homo sapiens, UniProt P22303); assay: hAChE inhibition assay; type: biochemical
hAChE, sequence (P22303 32-614): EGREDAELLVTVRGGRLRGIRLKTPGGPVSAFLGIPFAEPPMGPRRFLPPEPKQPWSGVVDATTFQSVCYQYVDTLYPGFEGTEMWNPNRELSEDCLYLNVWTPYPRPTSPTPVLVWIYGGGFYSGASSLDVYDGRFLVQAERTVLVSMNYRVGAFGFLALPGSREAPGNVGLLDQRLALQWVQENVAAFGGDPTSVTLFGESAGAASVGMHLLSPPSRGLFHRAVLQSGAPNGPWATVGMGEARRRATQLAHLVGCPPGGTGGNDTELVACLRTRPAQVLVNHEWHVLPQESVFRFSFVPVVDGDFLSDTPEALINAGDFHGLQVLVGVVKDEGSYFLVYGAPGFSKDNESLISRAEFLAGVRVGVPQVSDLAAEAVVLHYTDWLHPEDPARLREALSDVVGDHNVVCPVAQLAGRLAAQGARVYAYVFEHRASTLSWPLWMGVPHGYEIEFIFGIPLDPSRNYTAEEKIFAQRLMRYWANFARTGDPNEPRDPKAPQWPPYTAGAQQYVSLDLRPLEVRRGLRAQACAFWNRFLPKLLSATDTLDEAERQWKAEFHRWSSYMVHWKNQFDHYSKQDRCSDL

[5] = IC50 (nmol/L) 3 min, 3 min pre-incubation, FD substrate
[6] = IC50 (nmol/L) 33 min, 33 min pre-incubation, FD substrate

COc1cc2c(cc1OC)C(=O)/C(=C/c1ccccc1OC(=O)N1CCC(N3CCCCC3)CC1)C2 [Compound C8]
Ratio [1]: 3.25
IC50 [1, 5]: 732 ± 71.7 nM
IC50 [1, 6]: 225 ± 13.4 nM

COc1cc2c(cc1OC)C(=O)/C(=C/c1c(O)cccc1Br)C2 [Compound B20]
IC50 [1]: 290 nM

COc1ccc(/C=C2\Cc3cc(OC)c(OC)cc3C2=O)cc1 [Compound B6]
IC50 [1]: 17900 nM

COc1cc2c(cc1OC)C(=O)/C(=C/c1ccc(F)cc1)C2 [Compound B1]
IC50 [1]: 20900 nM

COc1cc2c(cc1OC)C(=O)/C(=C/c1ccccc1Cl)C2 [Compound B2]
IC50 [1]: 12100 nM

COc1cc2c(cc1OC)C(=O)C(CC1CCN(Cc3ccccc3)CC1)C2 (centres unmarked) [Donepezil, reference compound]
IC50 [1]: 3910 nM

CN(C)C(=O)C(CCN1CCC(O)(c2ccc(Cl)cc2)CC1)(c1ccccc1)c1ccccc1 [LPA, loperamide]
hCES2A activity after dialysis [2]: gradually recovering trend over time
elevated colon IL-6, IL-1β and TNF-α levels [3]: reversed

COc1cccc(/C=C2\Cc3cc(OC)c(OC)cc3C2=O)c1 [Compound B5]
IC50 [1]: 64800 nM

COc1cc2c(cc1OC)C(=O)/C(=C/c1ccccc1F)C2 [Compound B3]
IC50 [1]: 2970 nM

COc1ccccc1/C=C1\Cc2cc(OC)c(OC)cc2C1=O [Compound B4]
IC50 [1]: 5500 nM

COc1cc2c(cc1OC)C(=O)/C(=C/c1ccccc1OC(=O)N1CCN(C)CC1)C2 [Compound C7]
Ratio [1]: 7.32
IC50 [1, 5]: 258 ± 37.8 nM
IC50 [1, 6]: 35.3 ± 3.67 nM

COc1cc2c(cc1OC)C(=O)/C(=C/c1cccc(OC)c1O)C2 [Compound B21]
IC50 [1]: 400 nM

COc1cc2c(cc1OC)C(=O)/C(=C/c1ccccc1O)C2 [Compound B7]
anti-hAChE activity [4]: very weak anti-hAChE activity
enhancement of anti-hCES2A effect relative to A3 [1]: 8.36 folds
Ratio [1]: 0.33
IC50 [1, 5]: 106 ± 15.5 nM
IC50 [1, 6]: 325 ± 59.5 nM
IC50 ([1]; IC50 against hCES2A, FD substrate, 3 min preincubation): 110 nM
